≈ marks a conversion by molar mass, not a printed value. Like-named read-outs stand apart in the source and are kept apart here. Marks after values point to notes of the source that are not given here.
Experiments:
C. difficile VPI 10463 = experiment: MIC determination, agar dilution, C. difficile; type: cell-based, Clostridium difficile; details: Clostridioides difficile, VPI10463, 18 h, read-out: MIC C. difficile
[1] = Human foreskin cell toxicity; type: cell-based; details: human
H. pylori PFOR enzyme = experiment: Direct PFOR enzyme assay; type: biochemical; details: [Drug] = 40 μM
H. pylori strain 26695 = experiment: MIC determination, liquid microdilution, H. pylori; type: cell-based; details: Helicobacter pylori, 26695, 27 h, read-out: MIC H. pylori
C. jejuni strain H840 = experiment: MIC determination, liquid microdilution, C. jejuni; type: cell-based; details: Campylobacter jejuni, H840, 27 h, read-out: MIC C. jejuni
S. epidermidis = experiment: MIC determination, liquid microdilution, S. epidermidis; type: cell-based; details: Staphylococcus epidermidis, read-out: MIC S. epidermidis
Human foreskin cells = experiment: Human foreskin cell toxicity; type: cell-based
S. aureus (MRSA) = experiment: MIC determination, liquid microdilution, S. aureus; type: cell-based; details: Staphylococcus aureus, read-out: MIC S. aureus (MRSA)
E. coli = experiment: MIC against E. coli; type: cell-based; details: Escherichia coli

Compound	MIC (C. difficile VPI 10463)	MIC (H. pylori strain 26695)	MIC (C. jejuni strain H840)	MIC (S. epidermidis)	MIC (S. aureus (MRSA))	CC50 at 48 h ([1]; human foreskin cells)	other results
O=C(Nc1ncc([N+](=O)[O-])s1)c1cccc(C(F)(F)F)c1 [Analogue 23, N-(5-Nitrothiazol-2-yl)-3-(trifluoromethyl)benzamide]	0.5 µM (≈ 0.159 µg/mL)	3.5 µM (≈ 1.11 µg/mL)	4.7 µM (≈ 1.49 µg/mL)	12.6 µM (≈ 4 µg/mL)	–	> 50.4 µM	toxicity to human foreskin cells (in words) (Human foreskin cells): not toxic; PFOR Inhibition (H. pylori PFOR enzyme): 41.5 ± 5.5%
O=C(Nc1ncc([N+](=O)[O-])s1)c1cccc([N+](=O)[O-])c1 [Analogue 26, 3-Nitro-N-(5-nitrothiazol-2-yl)benzamide]	–	1.3 µM (≈ 0.383 µg/mL)	27.2 µM (≈ 8 µg/mL)	10.2 µM (≈ 3 µg/mL)	10.2 µM (≈ 3 µg/mL)	–	CC50 at 48 h [1]: 27.2 µM
O=C(Nc1ncc([N+](=O)[O-])s1)c1cc(C(F)(F)F)cc(C(F)(F)F)c1 [Analogue 38, N-(5-Nitrothiazol-2-yl)-3,5-bis(trifluoromethyl)benzamide]	–	5.2 µM (≈ 2 µg/mL)	41.5 µM (≈ 16 µg/mL)	1.9 µM (≈ 0.732 µg/mL)	2.6 µM (≈ 1 µg/mL)	10.4 µM	toxicity to human foreskin cells (in words) (Human foreskin cells): particularly toxic
O=C(Nc1ncc([N+](=O)[O-])s1)c1ccc(Cl)c(C(F)(F)F)c1 [Analogue 41, 4-Chloro-N-(5-nitrothiazol-2-yl)-3-(trifluoromethyl)benzamide]	1.4 µM (≈ 0.492 µg/mL)	2.8 µM (≈ 0.985 µg/mL)	2.8 µM (≈ 0.985 µg/mL)	2.8 µM (≈ 0.985 µg/mL)	2.8 µM (≈ 0.985 µg/mL)	> 45.5 µM	PFOR Inhibition (H. pylori PFOR enzyme): 33 ± 1%
O=C(Nc1ncc([N+](=O)[O-])s1)c1cccnc1F [Analogue 59, 2-Fluoro-N-(5-nitrothiazol-2-yl)nicotinamide]	2.8 µM (≈ 0.751 µg/mL)	–	–	119 µM (≈ 32 µg/mL)	119 µM (≈ 32 µg/mL)	> 59.7 µM	PFOR Inhibition (H. pylori PFOR enzyme): 61 ± 13%
O=C(Nc1ncc([N+](=O)[O-])s1)c1ccoc1 [Analogue 60, N-(5-Nitrothiazol-2-yl)furan-3-carboxamide]	1.7 µM (≈ 0.407 µg/mL)	–	–	33.4 µM (≈ 7.99 µg/mL)	–	> 66.9 µM	PFOR Inhibition (H. pylori PFOR enzyme): 58 ± 2 ^b %
O=C(Nc1ncc([N+](=O)[O-])s1)c1ccc([N+](=O)[O-])o1 [Analogue 64, 5-Nitro-N-(5-nitrothiazol-2-yl)furan-2-carboxamide]	–	21.1 µM (≈ 6 µg/mL)	7 µM (≈ 1.99 µg/mL)	28.1 µM (≈ 7.99 µg/mL)	113 µM (≈ 32 µg/mL)	> 56.3 µM	–
O=C(Nc1ncc([N+](=O)[O-])s1)c1ccc(-c2cccc([N+](=O)[O-])c2)o1 [Analogue 69, 5-(3-Nitrophenyl)-N-(5-nitrothiazol-2-yl)furan-2-carboxamide]	–	6.9 µM (≈ 2.49 µg/mL)	16.7 µM (≈ 6.02 µg/mL)	–	–	–	–
O=C(Nc1ncc([N+](=O)[O-])s1)c1ccc(-c2ccsc2)o1 [Analogue 71, N-(5-Nitrothiazol-2-yl)-5-(thiophen-3-yl)furan-2-carboxamide]	–	6.2 µM (≈ 1.99 µg/mL)	99.6 µM (≈ 32 µg/mL)	–	–	–	–
O=C(Nc1ncc([N+](=O)[O-])s1)c1cc2cc([N+](=O)[O-])ccc2o1 [Analogue 73, 5-Nitro-N-(5-nitrothiazol-2-yl)benzofuran-2-carboxamide]	–	4.5 µM (≈ 1.5 µg/mL)	4.5 µM (≈ 1.5 µg/mL)	–	–	–	–
O=C(Nc1ncc([N+](=O)[O-])s1)c1cccs1 [Analogue 76, N-(5-Nitrothiazol-2-yl)thiophene-2-carboxamide]	1.5 µM (≈ 0.383 µg/mL)	–	–	31.3 µM (≈ 7.99 µg/mL)	–	> 62.7 µM	PFOR Inhibition (H. pylori PFOR enzyme): 56 ± 6 ^b %
O=C(Nc1ncc([N+](=O)[O-])s1)c1sccc1Cl [Analogue 78, 3-Chloro-N-(5-nitrothiazol-2-yl)thiophene-2-carboxamide]	–	5.2 µM (≈ 1.51 µg/mL)	20.7 µM (≈ 6 µg/mL)	–	–	–	–
O=C(Nc1ncc([N+](=O)[O-])s1)c1ccc(-c2ccsc2)s1 [Analogue 82, N-(5-Nitrothiazol-2-yl)-2,3′-bithiophene-5-carboxamide]	–	3 µM (≈ 1.01 µg/mL)	94.8 µM (≈ 32 µg/mL)	–	–	–	–
O=C(Nc1ncc([N+](=O)[O-])s1)c1ccc(-c2ccoc2)s1 [Analogue 83, 5-(Furan-3-yl)-N-(5-nitrothiazol-2-yl)thiophene-2-carboxamide]	–	7.8 µM (≈ 2.51 µg/mL)	12.4 µM (≈ 3.98 µg/mL)	–	–	–	–
O=C(Nc1ncc([N+](=O)[O-])s1)c1sc2ccccc2c1Cl [Analogue 85, 3-Chloro-N-(5-nitrothiazol-2-yl)benzo[b]thiophene-2-carboxamide]	–	–	–	–	–	> 47.1 µM	–
CC(=O)Oc1ccccc1C(=O)Nc1ncc([N+](=O)[O-])s1 [Nitazoxanide, reference compound]	1.2 µM (≈ 0.369 µg/mL)	13 µM (≈ 3.99 µg/mL)	39.1 µM (≈ 12 µg/mL)	52.1 µM (≈ 16 µg/mL)	39.1 µM (≈ 12 µg/mL)	> 52.1 µM	MIC (E. coli; read-out: E. coli MIC): > 104 µM; MIC (E. coli; read-out: E. coli MIC, stated in text): > 32 mg/L; PFOR Inhibition (H. pylori PFOR enzyme; listed as 1, 40 µM): 54 ± 7%; PFOR Inhibition (H. pylori PFOR enzyme; listed as NTZ, 40 µM): [c] For PFOR inhibition assays, drug concentration was fixed at 40 μM which bench marks NTZ at ~50% inhibition.

Continued by falling MIC (H. pylori strain 26695), values first:

MIC (C. difficile VPI 10463)	MIC (H. pylori strain 26695)	MIC (C. jejuni strain H840)	MIC (S. epidermidis)	MIC (S. aureus (MRSA))	Compound	CC50 at 48 h ([1]; human foreskin cells)	other results
–	2.5 µM (≈ 0.763 µg/mL)	9.8 µM (≈ 2.99 µg/mL)	13.1 µM (≈ 4 µg/mL)	6.6 µM (≈ 2.02 µg/mL)	O=C(Nc1ncc([N+](=O)[O-])s1)c1cc2ccccc2s1 [Analogue 84, N-(5-Nitrothiazol-2-yl)benzo[b]thiophene-2-carboxamide]	> 52.6 µM	–
–	1.6 µM (≈ 0.488 µg/mL)	13.1 µM (≈ 4 µg/mL)	–	–	O=C(Nc1ncc([N+](=O)[O-])s1)c1ccc(-c2ccoc2)o1 [Analogue 70, N-(5-Nitrothiazol-2-yl)-2,3′-bifuran-5-carboxamide]	–	–
–	1.5 µM (≈ 0.5 µg/mL)	24 µM (≈ 8 µg/mL)	–	–	O=C(Nc1ncc([N+](=O)[O-])s1)c1ccc(-c2cccc(F)c2)o1 [Analogue 67, 5-(3-Fluorophenyl)-N-(5-nitrothiazol-2-yl)furan-2-carboxamide]	–	–
–	1.5 µM (≈ 0.486 µg/mL)	2.3 µM (≈ 0.746 µg/mL)	–	–	O=C(Nc1ncc([N+](=O)[O-])s1)c1cc(Cl)sc1Cl [Analogue 75, 2,5-Dichloro-N-(5-nitrothiazol-2-yl)thiophene-3-carboxamide]	–	–
–	1.5 µM (≈ 0.497 µg/mL)	72.4 µM (≈ 24 µg/mL)	–	–	O=C(Nc1ncc([N+](=O)[O-])s1)c1ccc(-c2ccccc2)s1 [Analogue 80, N-(5-Nitrothiazol-2-yl)-5-phenylthiophene-2-carboxamide]	–	–
–	1.1 µM (≈ 0.367 µg/mL)	9 µM (≈ 3 µg/mL)	12 µM (≈ 4 µg/mL)	6 µM (≈ 2 µg/mL)	O=C(Nc1ncc([N+](=O)[O-])s1)c1cccc(OC(F)(F)F)c1 [Analogue 31, N-(5-Nitrothiazol-2-yl)-3-(trifluoromethoxy)benzamide]	> 48 µM	–
–	1.1 µM (≈ 0.422 µg/mL)	8.5 µM (≈ 3.26 µg/mL)	5.7 µM (≈ 2.18 µg/mL)	11.4 µM (≈ 4.37 µg/mL)	O=C(Nc1ncc([N+](=O)[O-])s1)c1ccc(-c2cccc(C(F)(F)F)c2)o1 [Analogue 68, N-(5-Nitrothiazol-2-yl)-5-(3-(trifluoromethyl)phenyl)furan-2-carboxamide]	> 41.7 µM	–
2.4 µM (≈ 0.574 µg/mL)	1 µM (≈ 0.239 µg/mL)	8.4 µM (≈ 2.01 µg/mL)	66.9 µM (≈ 16 µg/mL)	50.2 µM (≈ 12 µg/mL)	O=C(Nc1ncc([N+](=O)[O-])s1)c1ccco1 [Analogue 61, N-(5-Nitrothiazol-2-yl)furan-2-carboxamide]	66.9 µM	PFOR Inhibition (H. pylori PFOR enzyme): 42 ^b %
–	1 µM (≈ 0.358 µg/mL)	5.6 µM (≈ 2 µg/mL)	5.6 µM (≈ 2 µg/mL)	2.1 µM (≈ 0.751 µg/mL)	O=C(Nc1ncc([N+](=O)[O-])s1)c1sc2cc(F)ccc2c1Cl [Analogue 86, 3-Chloro-6-fluoro-N-(5-nitrothiazol-2-yl)benzo[b]thiophene-2-carboxamide]	33.5 µM	–
3.3 µM (≈ 0.882 µg/mL)	0.9 µM (≈ 0.241 µg/mL)	2.8 µM (≈ 0.748 µg/mL)	–	–	O=C(Nc1ncc([N+](=O)[O-])s1)c1ccc(F)cc1 [Analogue 8, 4-Fluoro-N-(5-nitrothiazol-2-yl)benzamide]	29.9 µM	PFOR Inhibition (H. pylori PFOR enzyme): 85 ^b %
–	0.9 µM (≈ 0.317 µg/mL)	–	11.4 µM (≈ 4.01 µg/mL)	11.4 µM (≈ 4.01 µg/mL)	O=C(Nc1ncc([N+](=O)[O-])s1)c1cccc(C(F)(F)F)c1Cl [Analogue 40, 2-Chloro-N-(5-nitrothiazol-2-yl)-3-(trifluoromethyl)benzamide]	> 45.5 µM	–
–	0.7 µM (≈ 0.131 µg/mL)	10.7 µM (≈ 2 µg/mL)	21.4 µM (≈ 4.01 µg/mL)	171 µM (≈ 32 µg/mL)	CC(=O)Nc1ncc([N+](=O)[O-])s1 [Analogue 48, N-(5-Nitrothiazol-2-yl)acetamide]	> 85.5 µM	–
2.9 µM (≈ 0.74 µg/mL)	0.7 µM (≈ 0.179 µg/mL)	5.9 µM (≈ 1.51 µg/mL)	15.7 µM (≈ 4.01 µg/mL)	23.5 µM (≈ 6 µg/mL)	O=C(Nc1ncc([N+](=O)[O-])s1)c1ccsc1 [Analogue 74, N-(5-Nitrothiazol-2-yl)thiophene-3-carboxamide]	> 62.7 µM	PFOR Inhibition (H. pylori PFOR enzyme): 58.5 ± 3.5 ^b %
–	0.7 µM (≈ 0.256 µg/mL)	5.5 µM (≈ 2.01 µg/mL)	–	–	O=C(Nc1ncc([N+](=O)[O-])s1)c1ccc(-c2cccc(Cl)c2)s1 [Analogue 81, 5-(3-Chlorophenyl)-N-(5-nitrothiazol-2-yl)thiophene-2-carboxamide]	–	–
–	0.6 µM (≈ 0.174 µg/mL)	111 µM (≈ 32 µg/mL)	–	–	O=C(Nc1ncc([N+](=O)[O-])s1)c1cc2ccccc2o1 [Analogue 72, N-(5-Nitrothiazol-2-yl)benzofuran-2-carboxamide]	–	–
8.2 µM (≈ 1.99 µg/mL)	0.5 µM (≈ 0.122 µg/mL)	2.1 µM (≈ 0.511 µg/mL)	–	132 µM (≈ 32 µg/mL)	CCCCCC(=O)Nc1ncc([N+](=O)[O-])s1 [Analogue 50, N-(5-Nitrothiazol-2-yl)hexanamide]	> 65.8 µM	PFOR Inhibition (H. pylori PFOR enzyme): 64 ± 6 ^b %
